From US20210230313A1, “SULFUR-CONTAINING GLYCANS AND POLYSACCHARIDES AND METHODS OF CHEMOENZYMATIC SYNTHESIS THEREOF” (priority 2018, published 2021) come the findings set out here.

Assay [1] relates to PmHS-B. Nature of the assay: Radiochemical incorporation assay, co-polymerization with UDP-[3H]GlcA, paper chromatography. Format: biochemical, Pasteurella multocida. The settings on record: GAG synthase PmHS-B 1 mg/ml; test UDP-sugar 0.5 mM; UDP-[3H]GlcA 0.08 mM; 30° C., 5.5 hours; * = significant thio-sugar incorporation into polymer. Here is the method:
(§1) For polymerization tests, for example, the various oligosaccharide acceptors were incubated with two types of UDP-sugars at 2 mM as noted under the same conditions as the single sugar extensions above. Radioactive UDP-sugars (e.g., UDP-[^3H]GlcA) were used to monitor co-polymerization reactions with the thiosugar-donors separated by various modes of chromatography. The general reaction catalyzed by a GAG synthase in these tests is:
(§2) n UDP-4S-HexNAc+n UDP-[^3H]GlcA+acceptor-->2n UDP+[4S-HexNAc+UDP-[^3H]GlcA]n-acceptor
(§3) where HexNAc is GlcNAc, GalNAc, or another sugar or sugar derivative. Reactions used radioactive UDP-GlcA (0.08 mM final; 0.1 microCi ^3H) and the authentic UDP-sugars (a positive control) or their thio-analogs (0.5 mM final) with a GAG synthase (1 mg/ml) in neutral pH buffer (50 mM Hepes, pH 7.2) with divalent cation (1 mM Mn^2+) at 30° C. for 5.5 hours (note: the HA [PmHAS] and chondroitin [PmCS] synthase reactions also employed the stabilizer 1M ethylene glycol). The reactions were quenched (2% SDS detergent), and analyzed by paper chromatography. The small radioactive UDP-sugar precursors are polymerized by the synthase, resulting in larger products (stay at the origin of the paper; any unused precursor migrates down the paper); such data is shown in Table 3.
(§4) Chimeric enzymes that included differing portions of both PmHS1 (GenBank Accession #AAL84702) and PmHS2 (GenBank Accession #AAQ55109) were created and tested for their ability to synthesize polymers from the sulfur-containing UDP-4-S-GlcNAc. As shown below in Table 2, the corresponding numbers describe the original residue numbers of the source parental synthase sequence as noted.
(§5) Overall, the Chimeric B construct (PmHS-B) appears to be the best catalyst tested thus far for incorporating 4-S-GlcNAc into a heparosan-like S-linked polymer.

Assay [2] concerns PmHS-D. The assay is described as above. Type of assay: biochemical, Pasteurella multocida. The settings on record: GAG synthase PmHS-D 1 mg/ml; test UDP-sugar 0.5 mM; UDP-[3H]GlcA 0.08 mM; 30° C., 5.5 hours. Here is the method: as §1, §2, §3, §4, §5
Assay [3] relates to PmHS-G. Described as above. The settings on record: GAG synthase PmHS-G 1 mg/ml; test UDP-sugar 0.5 mM; UDP-[3H]GlcA 0.08 mM; 30° C., 5.5 hours; * = significant thio-sugar incorporation into polymer. Format: biochemical, Pasteurella multocida. The method, then:
as §1, §2, §3, §4, §5

Assay [4] relates to PmHS-I. Described as above. Format: biochemical, Pasteurella multocida. The settings on record: GAG synthase PmHS-I 1 mg/ml; test UDP-sugar 0.5 mM; UDP-[3H]GlcA 0.08 mM; 30° C., 5.5 hours. Here is the method: as §1, §2, §3, §4, §5
In assay [5] the test system is PmHS-J. Described as above. The settings on record: GAG synthase PmHS-J 1 mg/ml; test UDP-sugar 0.5 mM; UDP-[3H]GlcA 0.08 mM; 30° C., 5.5 hours; * = significant thio-sugar incorporation into polymer. Format: biochemical, Pasteurella multocida. Here is the method: as §1, §2, §3, §4, §5
Assay [6] concerns PmHS-A. Described as above. Format: biochemical, Pasteurella multocida. The settings on record: GAG synthase PmHS-A 1 mg/ml; test UDP-sugar 0.5 mM; UDP-[3H]GlcA 0.08 mM; 30° C., 5.5 hours. The method, then:
as §1, §2, §3, §4, §5

Assay [7] has as its target T1, bacterial heparin lyase III (Pedobacter heparinus, UniProt Q59289).
T1 sequence (Q59289 25-659): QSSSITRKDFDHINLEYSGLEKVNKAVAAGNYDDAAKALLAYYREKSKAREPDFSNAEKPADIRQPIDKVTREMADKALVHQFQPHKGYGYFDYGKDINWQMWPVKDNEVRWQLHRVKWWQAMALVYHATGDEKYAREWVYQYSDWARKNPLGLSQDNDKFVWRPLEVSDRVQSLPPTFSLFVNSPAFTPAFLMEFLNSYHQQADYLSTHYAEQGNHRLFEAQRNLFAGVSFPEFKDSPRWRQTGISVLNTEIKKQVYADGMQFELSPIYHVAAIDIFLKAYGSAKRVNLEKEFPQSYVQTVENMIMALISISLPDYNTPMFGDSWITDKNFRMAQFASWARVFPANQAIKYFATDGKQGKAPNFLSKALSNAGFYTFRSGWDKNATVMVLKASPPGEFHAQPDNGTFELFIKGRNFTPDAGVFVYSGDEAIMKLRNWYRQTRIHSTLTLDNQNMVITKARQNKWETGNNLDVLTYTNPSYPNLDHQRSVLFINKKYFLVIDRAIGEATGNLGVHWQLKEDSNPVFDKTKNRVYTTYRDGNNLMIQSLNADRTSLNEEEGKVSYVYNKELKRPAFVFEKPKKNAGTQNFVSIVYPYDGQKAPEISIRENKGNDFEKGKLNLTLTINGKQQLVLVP
Nature of the assay: Heparin lyase III challenge of HEP polymers, PAGE analysis. Type of assay: biochemical. The settings on record: 50 mM ammonium acetate, pH 7.0, 20 h at 30° C., loss of signal on PAGE (FIG. 8). The method, then:
Polymerization reactions and PAGE analysis. HEP trisaccharide (30 ng/ul) was incubated with 10 mM […] and either 10 mM 4-thio- or authentic UDP-GlcNAc, with PmHS-G (0.5 mg/ml), 1 mM MnCl2, and 50 mM Hepes, pH 7.2, for 20 h at 30° C. The reactions were then diluted in water and split into two aliquots, (i) a untreated control (−) and (ii) a heparin lyase III treated in 50 mM ammonium acetate, pH 7.0, for 20 h at 30° C. (+). The samples were then analyzed on a 6% 1×TBE PAGE (250 V, 15 min) and stained with 0.05% Alcian Blue followed by silver staining (BioRad Silver Stain kit).
Polymerization reactions producing longer HEP chains with either native (4-OH) or analog (4-SH) donors were analyzed for size on PAGE gels and stained. The gel depicts the polysaccharides made with both natural UDP-donors (native HEP) or by using the thio-GlcNAc analog and UDP-GlcA to form Hemi-A HEP.
Both polymers were challenged with bacterial heparin lyase III (+lanes). […] This finding is predicted as the enzyme digests the C—O—C glycosidic link that still exists in both types of HEP species.

As to `CC(=O)N[C@H]1[C@@H](OP(=O)(O)OP(=O)(O)OC[C@H]2O[C@@H](n3ccc(=O)[nH]c3=O)[C@H](O)[C@@H]2O)O[C@H](CO)[C@@H](S)[C@@H]1O` [UDP-4S-GlcNAc, UDP-4-SH-GlcNAc], the “3H radioactivity at the origin (dpm)” value is reported as 800 * dpm in assay [1]; 42 dpm in assay [2]; 510 * dpm in assay [3]; 42 dpm in assay [4]; 480 * dpm in assay [5].
On to `CC(=O)N[C@H]1[C@@H](OP(=O)(O)OP(=O)(O)OC[C@H]2O[C@@H](n3ccc(=O)[nH]c3=O)[C@H](O)[C@@H]2O)O[C@H](CO)[C@@H](O)[C@@H]1O` [UDP-GlcNAc, UDP-N-acetylglucosamine], for which the “3H radioactivity at the origin (dpm)” value in assay [6] is recorded as 9,230 dpm; in assay [1] it was 9,020 dpm; in assay [2], 4,140 dpm; in assay [3], 8,900 dpm; in assay [4], 3,900 dpm; in assay [5], 12,200 dpm.
With “(-4-GlcA-1-beta-S-4-GlcNAc-1-alpha-O)n [Hemi-A HEP]”, in assay [7], the “Susceptibility to digestion by bacterial heparin lyase” value was “sensitive to digestion”.
